The values that follow are results of earlier work, collected in patent US20020006953A1, “MODIFICATION OF CHOLESTEROL CONCENTRATIONS WITH CITUS PHYTOCHEMICALS” (priority 1999, published 2002).

Series [1] has as its system HepG2 cells.
The conditions of series [2]: 10% hesperidin diet.
Series [3] relates to lipase.

With `COc1ccc([C@@H]2CC(=O)c3c(O)cc(O)cc3O2)cc1O` [hesperetin], the “net secretion of apo B” value in series [1] was “reduced”.
On to `COc1ccc([C@@H]2CC(=O)c3c(O)cc(O[C@@H]4O[C@H](CO[C@@H]5O[C@@H](C)[C@H](O)[C@@H](O)[C@H]5O)[C@@H](O)[C@H](O)[C@H]4O)cc3O2)cc1O` [hesperidin], for which, in series [2], the “plasma concentration of triacylglycerols” value is recorded as “significantly reduced”. Further, in series [3], the activity of lipase result is “inhibit”.
As to `O=C1C[C@@H](c2ccc(O)cc2)Oc2cc(O)cc(O)c21` [naringinin], in series [1], the “net secretion of apo B” value is listed as “reduced”.
